# Experimental data as given in patent US20100173956A1, “Use of Quaternary Pyridinium Salts as Vasoprotective Agents” (Pharmena Spolka Akcyjna (Pharmena S.A.), priority 2004, published 2010).
# “Also recorded” adds a separate entry of the source.
# Legend:
# platelet-rich thrombi = assay: Thrombolytic activity in rats with extracorporal circulation (method of Gryglewski); format: in vivo, Wistar rats; conditions: for thrombolytic response: single injection, fall in weight of thrombi, maximum response
# Protocol: Thrombolytic activity of quaternary pyridinium salts was assessed using original method of Gryglewski et al., (Gryglewski R J, Korbut R, Ocetkiewicz A, Stachura J. In vivo method for quantitation for anti-platelet potency of drugs. Naunyn Schmiedebergs Arch Pharmacol 1978; 302:25-30), the scheme of which was shown on FIG. 1.
# (§1) Wistar rats of body weight 300-350 g were anaesthetised (thiopental 30 mg kg^−1 i.p.) and heparinised (unfractionated heparin. 800 i.u. kg^−1 i.v.). Arterial blood pressure was measured from cannulated right carotid artery, and extracorporal circulation was established between left carotid artery and left jugular vein. A collagen strip from rabbit tendon of Achilles was superfused with arterial blood in extracorporal circulation at a rate of 1.5 ml min^−1 and its weight was continuously monitored by an auxotonic Harvard transducer.
# (§2) During the initial 20-30 min of superfusion the strip was gaining in weight by 80-120 mg because of deposition of platelet-rich thrombi and then in control conditions stayed unchanged during next 3-5 hrs. Thrombolytic response was detected by a fall in weight of a thrombi. Arterial blood pressure was also monitored, so this model enabled the analysis of thrombolytic and hypotensive action of a compound (FIG. 1).
# [1] = tested on: 6-keto-PGF1α (stable PGI2 metabolite); assay: Assay of 6-keto-PGF1α in arterial blood plasma (enzyme immunoassay); format: in vivo, Wistar rats
# Protocol: (§3) The analysis of the thrombolytic response in this experimental set-up was complemented by the assay of 6-keto-PGF1α, TXB2 and PGE2 in arterial blood plasma. For this purpose blood samples (500 μl) were collected in Eppendorff tubes with indomethacin to yield its final concentration of 10 μM, and EDTA to yield the final concentration of 1 mM. Then, the blood samples were spinned for 5 min at 2.000×g. Plasma samples were stored at −70° C. The prostanoids were assayed using the enzyme immunoassay kits (Cayman Chemical Co, Ann Arbor, Mich.).
# neutrophils = assay: Latex-induced activation of neutrophils; format: cell-based
# TXB2 = assay: Assay of TXB2 in arterial blood plasma (enzyme immunoassay); format: in vivo, Wistar rats; conditions: 30 mg/kg i.v.
# Protocol: as §3
# PGE2 = assay: Assay of PGE2 in arterial blood plasma (enzyme immunoassay); format: in vivo, Wistar rats; conditions: 30 mg/kg i.v.
# Protocol: as §3
# [2] = Arterial blood pressure monitoring (hypotensive action); format: in vivo, Wistar rats
# Protocol: as §1, §2
# platelets = assay: Collagen-induced aggregation in platelet-rich plasma in vitro; format: cell-based; conditions: for effect on collagen-induced aggregation of platelets (FIG. 9): FIG. 9, (1 mg/ml)
# [3] = Anti-atherogenic effect in dyslipidemic patients (plasma TC, TG, HDL); format: in vivo; conditions: 30 mg orally three times a day
# Protocol: The anti-atherogenic effect of MNA^+ was investigated in 15 dyslipidemic patients. The enrollment criteria were: high level of TG (≧250 mg/dl) and low level of HDL (≦35 mg/dl for male, ≦45 mg/dl for female). The mean age of the patients was 61.4 (range 45-81 years). The patients were treated with MNA^+ for 2 weeks. The MNA^+ was administered orally, three times a day, one capsule (30 mg MNA^+) after meal. The plasma levels of TC, TG, HDL were measured at baseline and after 2 weeks of therapy. The level of LDL was measured in those cases, where it was possible (due to high TG level).
compound,measurement,setting,value
1-Methyl-3-acetylpyridinium salt [MAP^+],thrombolytic response (in words),platelet-rich thrombi; 30 mg/kg i.v.,comparable to that induced by 30 mg/kg of MNA^+
same,change of 6-keto-PGF1α level / release of PGI2 (in words),[1]; 30 mg/kg i.v.,associated with the release of PGI2
"Cn1cc(C(N)=O)ccc1=O [2-PYR, 1-methyl-2-pyridone-5-carboxyamide]",duration of thrombolytic response (transient),platelet-rich thrombi; 30 mg/kg i.v.,< 15 min
same,thrombolytic response (in words),platelet-rich thrombi; 30 mg/kg i.v.,Lack of thrombolytic response; also recorded: failed to induce a significant thrombolytic response; also recorded: did not display a significant thrombolytic activity
same,thrombolytic response,platelet-rich thrombi; 30 mg/kg i.v.,< 10%
"c1ccc2c(c1)[I+]c1ccccc1-2 [DPI, reference compound]",effect on latex-induced activation of neutrophils (FIG. 10),neutrophils,abrogated
"C[n+]1cccc(C(=O)NCO)c1 [MNAF^+, 1-methyl-N′-(hydroxymethyl)nicotinamide]",thrombolytic response (in words),platelet-rich thrombi; 30 mg/kg i.v.,comparable to that induced by 30 mg/kg of MNA^+
"C[n+]1cccc(C(N)=O)c1 [MNA^+, 1-methylnicotinamide]",thrombolytic response,platelet-rich thrombi; 30 mg/kg i.v.,42±4%
same,duration of thrombolytic response,"platelet-rich thrombi; 30 mg/kg i.v., response remained at approximately the same level over the observation period",2 to 3 h
same,dose dependence of thrombolysis,platelet-rich thrombi; 3-30 mg/kg i.v.,concentration-dependent thrombolysis
same,dose of maximum thrombolytic response,"platelet-rich thrombi; i.v., 3-30 mg/kg tested",30 mg/kg
same,thrombolytic response in the presence of indomethacin,platelet-rich thrombi; indomethacin 5 mg/kg,abrogated
same,change of 6-keto-PGF1α level / release of PGI2 (in words),[1]; 30 mg/kg i.v.,concomitant increase in level of 6-keto-PGF1α
same,level of 6-keto-PGF1α in arterial plasma,"[1]; 30 mg/kg i.v., 15 minutes after injection, before injection 104±7 pg/ml",460 ± 58 pg/mL
same,plateau level of 6-keto-PGF1α in arterial plasma,"[1]; 30 mg/kg i.v., for at least one hour",around 400 pg/ml
same,release of 6-keto-PGF1α in the presence of indomethacin,[1]; indomethacin 5 mg/kg,abrogated
same,change of TXB2 level in arterial plasma,TXB2,neither TXB2 nor PGE2 levels changed significantly
same,change of PGE2 level in arterial plasma,PGE2,neither TXB2 nor PGE2 levels changed significantly
same,fall in arterial blood pressure,"[2]; 30 mg/kg i.v., during thrombolysis",not associated with a fall in arterial blood pressure
same,hypotension,[2]; 30-300 mg/kg,did not cause hypotension
same,effect on collagen-induced aggregation of platelets (FIG. 9),platelets,Lack of effect; also recorded: did not inhibit
same,effect on collagen-induced aggregation in platelet-rich plasma,"platelets; in vitro, up to concentration of 10 mM",not affected
same,inhibition of latex-induced activation of neutrophils,neutrophils; 1 mM,did not inhibit
same,effect on latex-induced activation of neutrophils (FIG. 10),neutrophils,Lack of effect; also recorded: did not inhibit
same,"change of TC level, baseline to 2 weeks",[3],−15.7%
same,"change of TG level, baseline to 2 weeks",[3],−47.1%
same,"increase of HDL level, baseline to 2 weeks",[3],36.2%
same,TC plasma level after 2 weeks,"[3]; 15 dyslipidemic patients, baseline 267.0 mg/dl",225.1 mg/dL
same,HDL plasma level after 2 weeks,[3]; baseline 39.2 mg/dl,53.4 mg/dL
same,TG plasma level after 2 weeks,[3]; baseline 472.6 mg/dl,249.9 mg/dL
same,TG/HDL ratio after 2 weeks,[3]; baseline 13.9,5.8
"COc1cc(C(C)=O)ccc1O [apocynin, reference compound]",effect on latex-induced activation of neutrophils (FIG. 10),neutrophils,abrogated
"CC(=O)Oc1ccccc1C(=O)O [aspirin, reference compound]",effect on collagen-induced aggregation of platelets (FIG. 9),platelets,abrogated
NC(=O)c1cccnc1 [nicotinamide],thrombolytic response (in words),platelet-rich thrombi; 30 mg/kg i.v.,Lack of thrombolytic response; also recorded: failed to induce a significant thrombolytic response
same,thrombolytic response,platelet-rich thrombi; 30 mg/kg i.v.,9±0.6%
same,thrombolytic response (in words),"platelet-rich thrombi; 30 mg/kg i.v., listed as Nicotinamide",did not display a significant thrombolytic activity
same,change of 6-keto-PGF1α level / release of PGI2 (in words),[1]; 30 mg/kg i.v.,did not increase
O=C(O)c1cccnc1 [nicotinic acid],thrombolytic response (in words),platelet-rich thrombi; 30 mg/kg i.v.,Lack of thrombolytic response; also recorded: failed to induce a significant thrombolytic response; also recorded: did not display a significant thrombolytic activity
same,thrombolytic response,platelet-rich thrombi; 30 mg/kg i.v.,5±0.9%
same,change of 6-keto-PGF1α level / release of PGI2 (in words),[1]; 30 mg/kg i.v.,did not increase
C[n+]1cccc(C(=O)[O-])c1 [trigonelline],thrombolytic response (in words),platelet-rich thrombi; 30 mg/kg i.v.,Lack of thrombolytic response; also recorded: failed to induce a significant thrombolytic response; also recorded: did not display a significant thrombolytic activity
same,thrombolytic response,platelet-rich thrombi; 30 mg/kg i.v.,did not produce any thrombolytic response
